The values below come from patent US8962608B2, “Cycloalkylnitrile pyrazole carboxamides as janus kinase inhibitors” (Merck Sharp & Dohme Corp., priority 2011, dated 2015).

Test [1] deals with T1, JAK2 (recombinant purified GST-tagged catalytic domain) (Homo sapiens (Human), UniProt O60674).
Test [2] addresses JAK1 (recombinant purified GST-tagged catalytic domain) (Homo sapiens (Human), UniProt P23458).
Test [3] has as its target T1, JAK2 (recombinant purified GST-tagged catalytic domain). Briefly: biochemical.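 Also: biochemical JAK kinase assay with HTRF detection.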

Counter-ions that a name gives are not always drawn. Like-named read-outs stand apart in the source and are kept apart here.

T1 sequence (O60674 849-1124): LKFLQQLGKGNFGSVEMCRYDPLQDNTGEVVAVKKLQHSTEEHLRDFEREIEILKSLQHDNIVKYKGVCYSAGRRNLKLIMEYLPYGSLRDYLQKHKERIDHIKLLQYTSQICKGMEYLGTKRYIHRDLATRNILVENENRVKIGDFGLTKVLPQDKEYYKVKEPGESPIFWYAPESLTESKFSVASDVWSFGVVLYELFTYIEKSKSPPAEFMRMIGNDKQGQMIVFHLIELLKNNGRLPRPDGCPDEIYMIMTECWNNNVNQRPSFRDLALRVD
Sequence of JAK1 (recombinant purified GST-tagged catalytic domain) (P23458 875-1153): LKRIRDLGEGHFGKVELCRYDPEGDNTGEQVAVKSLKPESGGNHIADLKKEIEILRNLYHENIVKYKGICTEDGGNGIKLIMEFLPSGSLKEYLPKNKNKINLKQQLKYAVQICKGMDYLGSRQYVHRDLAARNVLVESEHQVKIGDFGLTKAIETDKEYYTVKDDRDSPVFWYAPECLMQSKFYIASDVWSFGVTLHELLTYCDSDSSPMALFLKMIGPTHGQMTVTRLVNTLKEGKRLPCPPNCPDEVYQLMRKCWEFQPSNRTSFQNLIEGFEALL

As to `N#C[C@@H]1CCC[C@@H]1n1cc(C(N)=O)c(Nc2ccccc2)n1` (mixture of isomers) [Example 1-1, 1-{[(1S,2R) and (1R,2S)]-2-cyanocyclopentyl]}-3-(phenylamino)-1H-pyrazole-4-carboxamide], the IC50 – broadly, the concentration at which inhibition is half-maximal – in test [1] was found to be 0.696 µM; in test [2], 0.096 µM. On the same counts, the results for `N#C[C@H]1CCC[C@@H]1n1cc(C(N)=O)c(Nc2ccccc2)n1` (mixture of isomers) [Example 1-2, 1-{[(1S,2S) and (1R,2R)]-2-cyanocyclopentyl]}-3-(phenylamino)-1H-pyrazole-4-carboxamide] are 0.101 µM and 0.008 µM. In the same order, the values of `CS(=O)(=O)c1ccc(Nc2nn([C@H]3CCC[C@@H]3C#N)cc2C(N)=O)cc1` (mixture of isomers) [Example 1-4, 1-{[(1S,2S) and (1R,2R)-2-cyanocyclopentyl]}-3-{4-(methylsulfonyl)phenyl]amino}-1H-pyrazole-4-carboxamide] are 0.011 µM and 0.0005 µM. On the same counts, the results for `CS(=O)(=O)c1ccc(Nc2nn([C@H]3CCC[C@H]3C#N)cc2C(N)=O)cc1` (mixture of isomers) [Example 1-5, 1-{[(1S,2R) and (1R,2S)]-2-cyanocyclopentyl]}-3-{[4-(methylsulfonyl)phenyl]amino}-1H-pyrazole-4-carboxamide] are 0.082 µM and 0.005 µM. In the case of `N#C[C@@H]1CCCC[C@@H]1n1cc(C(N)=O)c(Nc2ccc(CC(=O)O)cc2)n1` (mixture of isomers) [Example 3-1, [4-({4-carbamoyl-1-[(1S,2R and 1R,2S)-2-cyanocyclohexyl]-1H-pyrazol-3-yl}amino)phenyl]acetic acid], the IC50 in test [1] was determined as 0.109 µM.

Take `CN(C)[C@H]1CC[C@H](C#N)[C@@H](n2cc(C(N)=O)c(Nc3ccc(F)cc3)n2)C1` (mixture of isomers) [Example 6-1, 1-[(1S,2S,5S and 1R,2R,5R)-2-cyano-5-(dimethylamino)cyclohexyl]-3-[(4-fluorophenyl)amino]-1H-pyrazole-4-carboxamide]: the results for the IC50 in test [1] and in test [2] were more than 1.5 µM and 0.41 µM, respectively. In the same order, the values of `CN(C)[C@@H]1CC[C@H](C#N)[C@@H](n2cc(C(N)=O)c(Nc3ccc(F)cc3)n2)C1` (mixture of isomers) [Example 6-2, 1-[(1S,2S,5R and 1R,2R,5S)-2-cyano-5-(dimethylamino)cyclohexyl]-3-[(4-fluorophenyl)amino]-1H-pyrazole-4-carboxamide] are more than 1.5 µM and 0.305 µM. On the same counts, the results for `CN[C@@H]1CC[C@H](C#N)[C@@H](n2cc(C(N)=O)c(Nc3ccc(F)cc3)n2)C1` (mixture of isomers) [Example 6-3, 1-{[(1S,2S,5R) and (1R,2R,5S)]-2-cyano-5-(methylamino)cyclohexyl}-3-[(4-fluorophenyl)amino]-1H-pyrazole-4-carboxamide] are more than 1.5 µM and 0.25 µM. In the same order, the values of `N#C[C@H]1CC[C@H](NCc2ccccc2)C[C@@H]1n1cc(C(N)=O)c(Nc2ccc(F)cc2)n1` (mixture of isomers) [Example 6-4, 1-{[(1S,2S,5S) and (1R,2R,5R)]-5-(benzylamino)-2-cyanocyclohexyl}-3-[(4-fluorophenyl)amino]-1H-pyrazole-4-carboxamide] are 0.055 µM and 0.004 µM. With `CN[C@H]1CC[C@H](C#N)[C@@H](n2cc(C(N)=O)c(Nc3ccc(F)cc3)n2)C1` (mixture of isomers) [Example 6-5, 1-{[(1S,2S,5S) and (1R,2R,5R)-2-cyano-5-(methylamino)cyclohexyl]-3-[(4-fluorophenyl)amino]-1H-pyrazole-4-carboxamide], the IC50 in test [1] is more than 1.5 µM; in test [2] it was 0.41 µM. On the same counts, the results for `N#C[C@H]1CC[C@@H](NCc2ccccc2)C[C@@H]1n1cc(C(N)=O)c(Nc2ccc(F)cc2)n1` (mixture of isomers) [Example 6-6, 1-{[(1S,2S,5R) and (1R,2R,5S)]-5-(benzylamino)-2-cyanocyclohexyl}-3-[(4-fluorophenyl)amino]-1H-pyrazole-4-carboxamide] are 0.17 µM and 0.011 µM. Take `CN(C)[C@H]1CC[C@H](n2cc(C(N)=O)c(Nc3ccc(S(=O)(=O)C(F)(F)F)cc3)n2)[C@@H](C#N)C1` (mixture of isomers) [Example 27-1, 1-[(1S,3S,4S and 1R,3R,4R)-4-[4-carbamoyl-3-({4-[(trifluoromethyl)sulfonyl]phenyl}amino)-1H-pyrazol-1-yl]-3-cyano-N,N-dimethylcyclohexanaminium trifluoroacetate]: in test [2], the concentration for half-maximal inhibition (IC50) stood at 0.0002 µM.

Turning to `CN(C)[C@@H]1CC[C@H](n2cc(C(N)=O)c(Nc3ccc(S(=O)(=O)C(F)(F)F)cc3)n2)[C@@H](C#N)C1` (mixture of isomers) [Example 27-2, 1-[(1R,3S,4S and 1S,3R,4R)-4-[4-carbamoyl-3-({4-[(trifluoromethyl)sulfonyl]phenyl}amino)-1H-pyrazol-1-yl]-3-cyano-N,N-dimethylcyclohexanaminium trifluoroacetate], the concentration for half-maximal inhibition (IC50) in test [2] stood at 0.0005 µM. On the same count and under the same terms, with `CC(O)(c1ccc(Nc2nn([C@H]3CCCC[C@@H]3C#N)cc2C(N)=O)cn1)C(F)F` (single isomer, unassigned) [Example 17-40, 1-[(1S,2S or 1R,2R)-2-cyanocyclohexyl]-3-({6-[(1R or 1S)-2,2-difluoro-1-hydroxy-1-methylethyl]pyridin-3-yl}amino)-1H-pyrazole-4-carboxamide] the figure was 0.00024 µM. In the case of `N#C[C@H]1C[C@H](O)CC[C@@H]1n1cc(C(N)=O)c(Nc2ccc(C(F)(F)F)cc2)n1` (single isomer, unassigned) [Example 25-24, 1-[(1S,2S,4R or 1R,2R,4S)-2-cyano-4-hydroxycyclohexyl]-3-{[4-(trifluoromethyl)phenyl]amino}-1H-pyrazole-4-carboxamide], the results for the half-maximal inhibitory concentration (IC50) in test [3] and in test [2] were 0.008 µM and 0.001 µM, respectively. For `CC1(C)CN([C@H]2CC[C@H](n3cc(C(N)=O)c(Nc4ccnc(F)c4)n3)[C@@H](C#N)C2)C1` (single isomer, unassigned) [Example 28-134, 1-[(1S,2S,4S or 1R,2R,4R )-2-cyano-4-(3,3-dimethylazetidin-1-yl)cyclohexyl]-3-[(2-fluoropyridin-4-yl)amino]-1H-pyrazole-4-carboxamide], the 50% inhibitory concentration (IC50) in test [2] was 0.001 µM. On the same count and under the same terms, as for `CC1(N[C@H]2CCC(n3cc(C(N)=O)c(Nc4ccc(Cl)cc4)n3)[C@@H](C#N)C2)CC1` (single isomer, unassigned) [Example 28-205, 3-[(4-chlorophenyl)amino]-1-{(1S,2S,4S or 1R,2R,4R,)-2-cyano-4-[(1-methylcyclopropyl)amino]cyclo-hexyl}-1H-pyrazole-4-carboxamide], the figure is 0.0009 µM. As to `COCC(C)N(C)[C@H]1CCC(n2cc(C(N)=O)c(Nc3ccc(Cl)cc3)n2)[C@@H](C#N)C1` (single isomer, unassigned) [Example 28-241, 3-[(4-chlorophenyl)amino]-1-[(1R,2S,4S1S,2S,4S or 1R,2R,4R)-2-cyano-4-{[(1S or 1R)-2-methoxy-1-methylethyl](methyl)ami-no}cyclohexyl]-1H-pyrazole-4-carboxamide], the half-inhibitory concentration (IC50) came out at 0.028 µM in test [3] and 0.002 µM in test [2]. Regarding `CS(=O)(=O)c1ccc(Nc2nn([C@H]3CCCC[C@@H]3C#N)cc2C(N)=O)cc1` (single isomer, unassigned) [Example 42-2, 1-[(1S,2S or 1R,2R)-2-cyanocyclohexyl]-3-{[4-(methylsulfonyl)phenyl]amino}-1H-pyrazole-4-carboxamide], in test [1], the concentration for half-maximal inhibition (IC50) turned out to be 0.027 µM. Same read-out and setting: with `CS(=O)(=O)c1ccc(Nc2nn([C@H]3CCCC[C@H]3C#N)cc2C(N)=O)cc1` (single isomer, unassigned) [Example 42-3, 1-[(1S,2R or 1R,2S)-2-cyanocyclohexyl]-3-{[4-(methylsulfonyl)phenyl]amino}-1H-pyrazole-4-carboxamide] the figure was 0.085 µM. With `CS(=O)(=O)c1ccc(Nc2nn([C@H]3CCCC[C@H]3C#N)cc2C(N)=O)cc1` (single isomer, unassigned) [Example 42-4, 1-[(1S,2R or 1R,2S)-2-cyanocyclohexyl]-3-{[4-(methylsulfonyl)phenyl]amino}-1H-pyrazole-4-carboxamide], the half-maximal inhibitory concentration (IC50) in test [1] was 0.007 µM. The same measure, in the same setting: as for `CS(=O)(=O)c1ccc(Nc2nn(C3CCCCC3C#N)cc2C(N)=O)cc1` (centres unmarked) [Example 2-15, 1-(2-cyanocyclohexyl)-3-{[4-(methylsulfonyl)phenyl]amino}-1H-pyrazole-4-carboxamide], the figure is 0.009 µM. On to `CC(C)(C)OC(=O)C1CCC(n2cc(C(N)=O)c(Nc3ccc(S(=O)(=O)C(F)(F)F)cc3)n2)C(C#N)C1` (centres unmarked) [Example 17-2, tert-butyl 4-[4-carbamoyl-3-({4-[(trifluoromethyl)sulfonyl]phenyl}amino)-1H-pyrazol-1-yl]-3-cyanocyclohexanecarboxylate], for which the IC50 in test [2] was determined as 0.023 µM. Same read-out and setting: with `Cc1cncc(Nc2nn([C@H]3CCCC[C@@H]3C#N)cc2C(N)=O)c1` [Example 17-73, 1-[(1S,2S)-2-cyanocyclohexyl]-3-[(5-methylpyridin-3-yl)amino]-1H-pyrazole-4-carboxamide] the figure was 0.016 µM; with `C[N+]1([C@H]2CC[C@H](n3cc(C(N)=O)c(Nc4ccc(Cl)cc4)n3)[C@@H](C#N)C2)CCC1` [Example 31-2, 1-[(1S,3S,4S)-4-{4-carbamoyl-3-[(4-chlorophenyl)amino]-1H-pyrazol-1-yl}-3-cyanocyclohexyl]-1-methylazetidinium], 0.001 µM; with `N#C[C@H]1C[C@@H]([N+]2(CC3CC3)CCC2)CC[C@@H]1n1cc(C(N)=O)c(Nc2ccc(Cl)cc2)n1` [Example 31-5, 1-[(1S,3S,4S)-4-{4-carbamoyl-3-[(4-chlorophenyl)amino]-1H-pyrazol-1-yl}-3-cyanocyclohexyl]-1-(cyclopropylmethyl)azetidinium], 0.00085 µM.
